Patent publication US20230085307A1, “PYRIDAZINONE COMPOUND AND HERBICIDE” (NISSAN CHEMICAL CORPORATION, priority 2019, published 2023)

Experiments:
windgrass [1] = experiment: Test Example 5: herbicidal effect by foliage application, plastic box (Table 20, symbol L); type: in vivo, windgrass (Apera spica-venti); conditions: foliage application, 320 g/ha, evaluated three weeks after application
Method in brief: (§1)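 Foliar spray test: emulsion formulation diluted in water to a set application rate, sprayed onto 14-day-old plants raised in diluvial soil at 25° C to 30° C under glass. Both herbicidal effect and crop effect rated visually three weeks later.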

redroot pigweed [2] = experiment: Test Example 5: herbicidal effect by foliage application, plastic box (Table 20, symbol N); type: in vivo, redroot pigweed (Amaranthus retroflexus); conditions: foliage application, 320 g/ha, evaluated three weeks after application
Method in brief: as §1

velvetleaf [3] = experiment: Test Example 4: herbicidal effect by soil treatment (Table 19, symbol M); type: in vivo, velvetleaf (Abutilon theophrasti); conditions: amount of applied herbicide 320 g/ha
Method in brief: (§2)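 Herbicidal effect was rated 3 weeks after treatment, using the scoring criteria of an earlier test. The compound, formulated as an emulsion and diluted in water to a set herbicide amount, had been sprayed uniformly on soil over freshly sown seeds. Growth took place in a greenhouse at 25° C. to 30° C.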

oval-leafed pondweed = experiment: Test Example 2: herbicidal activity, application during weed generation under submerged conditions (Table 17, symbol C); type: in vivo, oval-leafed pondweed (Monochoria vaginalis); conditions: AAH 320 g/ha; application during weed generation, submerged conditions
Method in brief: (§3)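 In this pot test, flooded alluvial soil (water depth 4 cm) holds all three species sown as a mixture. Once seedlings have one to two leaves, the compound's emulsion, thinned with water to the intended dose, is poured on the water; grading follows after three weeks on the earlier criteria.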

barnyard grass [4] = experiment: Test Example 4: herbicidal effect by soil treatment (Table 19, symbol H); type: in vivo, barnyard grass (Echinochloa crus-galli); conditions: amount of applied herbicide 320 g/ha
Method in brief: as §2

Italian ryegrass [5] = experiment: Test Example 5: herbicidal effect by foliage application, plastic box (Table 20, symbol K); type: in vivo, Italian ryegrass (Lolium multiflorum); conditions: foliage application, 320 g/ha, evaluated three weeks after application
Method in brief: as §1

green foxtail [6] = experiment: Test Example 4: herbicidal effect by soil treatment (Table 19, symbol G); type: in vivo, green foxtail (Setaria viridis); conditions: amount of applied herbicide 320 g/ha
Method in brief: as §2

Italian ryegrass [7] = experiment: Test Example 4: herbicidal effect by soil treatment (Table 19, symbol K); type: in vivo, Italian ryegrass (Lolium multiflorum); conditions: amount of applied herbicide 320 g/ha
Method in brief: as §2

blackgrass = experiment: Test Example 5: herbicidal effect by foliage application, plastic box (Table 20, symbol J); type: in vivo, blackgrass (Alopecurus myosuroides); conditions: foliage application, 320 g/ha, evaluated three weeks after application
Method in brief: as §1

southern crabgrass [8] = experiment: Test Example 4: herbicidal effect by soil treatment (Table 19, symbol F); type: in vivo, southern crabgrass (Digitaria ciliaris); conditions: amount of applied herbicide 320 g/ha
Method in brief: as §2

rice flat sedge = experiment: Test Example 3: herbicidal effect by foliage application, Wagner pot (Table 18, symbol E); type: in vivo, rice flat sedge (Cyperus iria); conditions: amount of applied herbicide 320 g/ha
Method in brief: (§4)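 Plants were sown in alluvial soil held under 0.1–0.5 cm standing water and grown 14 days in a greenhouse at 25–30 °C. An emulsifiable formulation, water-diluted to the set dose, was then sprayed onto the foliage, and effects were scored three weeks later using previously defined criteria.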

wild oat [9] = experiment: Test Example 4: herbicidal effect by soil treatment (Table 19, symbol I); type: in vivo, wild oat (Avena fatua); conditions: amount of applied herbicide 320 g/ha
Method in brief: as §2

persian speedwell [10] = experiment: Test Example 4: herbicidal effect by soil treatment (Table 19, symbol R); type: in vivo, Persian speedwell (Veronica persica); conditions: amount of applied herbicide 320 g/ha
Method in brief: as §2

redroot pigweed [11] = experiment: Test Example 4: herbicidal effect by soil treatment (Table 19, symbol N); type: in vivo, redroot pigweed (Amaranthus retroflexus); conditions: amount of applied herbicide 320 g/ha
Method in brief: as §2

Japanese bulrush = experiment: Test Example 2: herbicidal activity, application during weed generation under submerged conditions (Table 17, symbol B); type: in vivo, Japanese bulrush (Schoenoplectus juncoides); conditions: AAH 320 g/ha; application during weed generation, submerged conditions
Method in brief: as §3

southern crabgrass [12] = experiment: Test Example 5: herbicidal effect by foliage application, plastic box (Table 20, symbol F); type: in vivo, southern crabgrass (Digitaria ciliaris); conditions: foliage application, 320 g/ha, evaluated three weeks after application
Method in brief: as §1

false cleavers [13] = experiment: Test Example 5: herbicidal effect by foliage application, plastic box (Table 20, symbol Q); type: in vivo, false cleavers (Galium spurium); conditions: foliage application, 320 g/ha, evaluated three weeks after application
Method in brief: as §1

Chinese sprangletop = experiment: Test Example 3: herbicidal effect by foliage application, Wagner pot (Table 18, symbol D); type: in vivo, chinese sprangletop (Leptochloa chinensis); conditions: amount of applied herbicide 320 g/ha
Method in brief: as §4

velvetleaf [14] = experiment: Test Example 5: herbicidal effect by foliage application, plastic box (Table 20, symbol M); type: in vivo, velvetleaf (Abutilon theophrasti); conditions: foliage application, 320 g/ha, evaluated three weeks after application
Method in brief: as §1

green foxtail [15] = experiment: Test Example 5: herbicidal effect by foliage application, plastic box (Table 20, symbol G); type: in vivo, green foxtail (Setaria viridis); conditions: foliage application, 320 g/ha, evaluated three weeks after application
Method in brief: as §1

lambsquarters [16] = experiment: Test Example 5: herbicidal effect by foliage application, plastic box (Table 20, symbol O); type: in vivo, lambsquarters (Chenopodium album); conditions: foliage application, 320 g/ha, evaluated three weeks after application
Method in brief: as §1

windgrass [17] = experiment: Test Example 4: herbicidal effect by soil treatment (Table 19, symbol L); type: in vivo, windgrass (Apera spica-venti); conditions: amount of applied herbicide 320 g/ha
Method in brief: as §2

wild oat [18] = experiment: Test Example 5: herbicidal effect by foliage application, plastic box (Table 20, symbol I); type: in vivo, wild oat (Avena fatua); conditions: foliage application, 320 g/ha, evaluated three weeks after application
Method in brief: as §1

barnyard grass [19] = experiment: Test Example 5: herbicidal effect by foliage application, plastic box (Table 20, symbol H); type: in vivo, barnyard grass (Echinochloa crus-galli); conditions: foliage application, 320 g/ha, evaluated three weeks after application
Method in brief: as §1

persian speedwell [20] = experiment: Test Example 5: herbicidal effect by foliage application, plastic box (Table 20, symbol R); type: in vivo, Persian speedwell (Veronica persica); conditions: foliage application, 320 g/ha, evaluated three weeks after application
Method in brief: as §1

chickweed [21] = experiment: Test Example 5: herbicidal effect by foliage application, plastic box (Table 20, symbol P); type: in vivo, common chickweed (Stellaria media); conditions: foliage application, 320 g/ha, evaluated three weeks after application
Method in brief: as §1

chickweed [22] = experiment: Test Example 4: herbicidal effect by soil treatment (Table 19, symbol P); type: in vivo, common chickweed (Stellaria media); conditions: amount of applied herbicide 320 g/ha
Method in brief: as §2

late watergrass = experiment: Test Example 2: herbicidal activity, application during weed generation under submerged conditions (Table 17, symbol A); type: in vivo, late watergrass (Echinochloa oryzicola); conditions: AAH 320 g/ha; application during weed generation, submerged conditions
Method in brief: as §3

false cleavers [23] = experiment: Test Example 4: herbicidal effect by soil treatment (Table 19, symbol Q); type: in vivo, false cleavers (Galium spurium); conditions: amount of applied herbicide 320 g/ha
Method in brief: as §2

lambsquarters [24] = experiment: Test Example 4: herbicidal effect by soil treatment (Table 19, symbol O); type: in vivo, lambsquarters (Chenopodium album); conditions: amount of applied herbicide 320 g/ha
Method in brief: as §2

barnyard grass [25] = experiment: Test Example 3: herbicidal effect by foliage application, Wagner pot (Table 18, symbol H); type: in vivo, barnyard grass (Echinochloa crus-galli); conditions: amount of applied herbicide 320 g/ha
Method in brief: as §4

CCCC(=O)Oc1c(C)nn(C)c(=O)c1-c1c(-c2ccc3c(c2)OCCO3)sc2ccc(Cl)cc12 [2-128]
herbicidal effect on L: windgrass (windgrass [1]): 0 (Herbicidal rate of 5% or less (almost no effect))
herbicidal effect on N: redroot pigweed (redroot pigweed [2]): 3 (Herbicidal rate of 40% or more and less than 70%)
M: velvetleaf, herbicidal effect rating (velvetleaf [3]): 0 (Herbicidal rate of 5% or less (almost no effect))
herbicidal effect rating, C: oval-leafed pondweed (oval-leafed pondweed): 3 (Herbicidal rate of 40% or more and less than 70%)
H: barnyard grass, herbicidal effect rating (barnyard grass [4]): 0 (Herbicidal rate of 5% or less (almost no effect))
herbicidal effect on K: Italian ryegrass (Italian ryegrass [5]): 0 (Herbicidal rate of 5% or less (almost no effect))
G: green foxtail, herbicidal effect rating (green foxtail [6]): 0 (Herbicidal rate of 5% or less (almost no effect))
K: Italian ryegrass, herbicidal effect rating (Italian ryegrass [7]): 0 (Herbicidal rate of 5% or less (almost no effect))
herbicidal effect on J: blackgrass (blackgrass): 0 (Herbicidal rate of 5% or less (almost no effect))
F: southern crabgrass, herbicidal effect rating (southern crabgrass [8]): 0 (Herbicidal rate of 5% or less (almost no effect))
herbicidal effect on E: rice flat sedge (rice flat sedge): 0 (Herbicidal rate of 5% or less (almost no effect))
I: wild oat, herbicidal effect rating (wild oat [9]): 0 (Herbicidal rate of 5% or less (almost no effect))
R: persian speedwell, herbicidal effect rating (persian speedwell [10]): 5 (Herbicidal rate of 90% or more (almost completely withered))
N: redroot pigweed, herbicidal effect rating (redroot pigweed [11]): 0 (Herbicidal rate of 5% or less (almost no effect))
herbicidal effect rating, B: Japanese bulrush (Japanese bulrush): 0 (Herbicidal rate of 5% or less (almost no effect))
herbicidal effect on F: southern crabgrass (southern crabgrass [12]): 0 (Herbicidal rate of 5% or less (almost no effect))
herbicidal effect on Q: false cleavers (false cleavers [13]): 0 (Herbicidal rate of 5% or less (almost no effect))
herbicidal effect on D: Chinese sprangletop (Chinese sprangletop): 0 (Herbicidal rate of 5% or less (almost no effect))
herbicidal effect on M: velvetleaf (velvetleaf [14]): 2 (Herbicidal rate of 20% or more and less than 40%)
herbicidal effect on G: green foxtail (green foxtail [15]): 0 (Herbicidal rate of 5% or less (almost no effect))
herbicidal effect on O: lambsquarters (lambsquarters [16]): 1 (Herbicidal rate of 5% or more and less than 20%)
L: windgrass, herbicidal effect rating (windgrass [17]): 0 (Herbicidal rate of 5% or less (almost no effect))
herbicidal effect on I: wild oat (wild oat [18]): 0 (Herbicidal rate of 5% or less (almost no effect))
herbicidal effect on H: barnyard grass (barnyard grass [19]): 0 (Herbicidal rate of 5% or less (almost no effect))
herbicidal effect on R: persian speedwell (persian speedwell [20]): 5 (Herbicidal rate of 90% or more (almost completely withered))
herbicidal effect on P: chickweed (chickweed [21]): 5 (Herbicidal rate of 90% or more (almost completely withered))
P: chickweed, herbicidal effect rating (chickweed [22]): 1 (Herbicidal rate of 5% or more and less than 20%)
herbicidal effect rating, A: late watergrass (late watergrass): 0 (Herbicidal rate of 5% or less (almost no effect))
Q: false cleavers, herbicidal effect rating (false cleavers [23]): 0 (Herbicidal rate of 5% or less (almost no effect))
O: lambsquarters, herbicidal effect rating (lambsquarters [24]): 0 (Herbicidal rate of 5% or less (almost no effect))
herbicidal effect on H: barnyard grass (barnyard grass [25]): 3 (Herbicidal rate of 40% or more and less than 70%)
